The values that follow come from patent US5401726A, “2'methylidenepyrimidine nucleoside compounds, their use and method for production thereof” (Yoshitomi Pharaceutical Industries, Ltd., priority 1988, dated 1995).

Series [1] is described as follows: solubility in saline at 25 mg/ml, room temperature. Format: physicochemical.
In series [2] the test system is L1210/c; mouse leukemia. The series is described as follows: MTT cytotoxicity, in vitro cell growth, L1210/c. Format: cell-based. The note with it: 72 hr, read-out: IC50 (concentration showing 50% cytotoxity). On the procedure:
(§1) Effect of the compounds on in vitro cell growth of various tumor cell lines:
(§2) The assay of cytotoxicity is dependent on the cellular reduction of MTT [3'-(4,5-dimethylthiazol-2-yl)-2,5-diphenyltetrazolium bromide] by the mitochondrial dehydrogenase of viable cells to a blue formazan product which can be measured spectrophotometrically. Cell suspension, 100 μl, containing 10^4 tumor cells with or without test sample was incubated for 72 hr in 5% CO2 -95% air at 37° C. in 96 well microculture plates (Falcol 3072). The 10 μl of MTT (5 mg/ml) in saline was added to each culture well and incubated for 4 hr at 37° C. The formazan crystals were solubilized by the addition of 100 μl of 10% SDS/0.01N HCl to each well, and incubated for 24 hr at 37° C. The plates were then read at 570 nm on the plate reader. The percentage of cytotoxicity was calculated from the formula: [formula]
(§3) 2 '-Deoxy-2'-methylidene-5-fluorocytidine was dissolved in distilled water, and diluted in RPM1 1640 medium. Tumor cell lines were maintained in RPM1 1640 medium (Nissui Seiyaku Co., Ltd., Tokyo, Japan).
(§4) IC50 values gave the concentrations showing the 50% cytotoxity.

Series [3] relates to CCRF-CEM; human T cell leukemia. The series is described as follows: MTT cytotoxicity, in vitro cell growth, CCRF-CEM. The format is cell-based. The note with it: 72 hr, read-out: IC50 (concentration showing 50% cytotoxity). On the procedure:
as §1, §2, §3, §4

Series [4] deals with PC13; human lung large cell carcinoma. The series is described as follows: MTT cytotoxicity, in vitro cell growth, PC13. Format: cell-based. The note with it: PC-13, 72 hr, read-out: IC50 (concentration showing 50% cytotoxity). On the procedure: as §1, §2, §3, §4
Series [5] relates to B16; mouse melanoma. The series is described as follows: MTT cytotoxicity, in vitro cell growth, B16. The note with it: 72 hr, read-out: IC50 (concentration showing 50% cytotoxity). Format: cell-based. On the procedure:
as §1, §2, §3, §4

Series [6] deals with MOLT4; human T cell leukemia. The series can be described thus: MTT cytotoxicity, in vitro cell growth, MOLT4. Format: cell-based. Particulars: MOLT-4, 72 hr, read-out: IC50 (concentration showing 50% cytotoxity). On the procedure:
as §1, §2, §3, §4

The test system of series [7] is U937; human histiocytic leukemia. The series is described as follows: MTT cytotoxicity, in vitro cell growth, U937. Format: cell-based. The note with it: U-937, 72 hr, read-out: IC50 (concentration showing 50% cytotoxity). On the procedure: as §1, §2, §3, §4
Series [8] deals with HL60; human promyelocytic leukemia. The series can be described thus: MTT cytotoxicity, in vitro cell growth, HL60. Format: cell-based. Particulars: HL-60, 72 hr, read-out: IC50 (concentration showing 50% cytotoxity). On the procedure: as §1, §2, §3, §4
Series [9] is described as follows: solubility (general statement). The format is physicochemical. Particulars: with respect to pharmaceutical production.

In brackets after ≈: the same amount, converted by molar mass.

Consider `C=C1[C@H](n2cc(F)c(N)nc2=O)O[C@H](CO)[C@H]1O` [Example 1, 2'-deoxy-2'-methylidene-5-fluorocytidine], for which the solubility in saline entry in [1] is listed as “easily soluble”. In addition, the IC50 in series [2] came to 0.33 µg/mL (≈ 1.28 µM); in series [3] it was 0.14 µg/mL (≈ 0.544 µM); in series [4], 1 µg/mL (≈ 3.89 µM); in series [5], 6.9 µg/mL (≈ 26.8 µM); in [6] it was 0.036 µg/mL (≈ 0.14 µM); in series [7], 0.44 µg/mL (≈ 1.71 µM). Moreover, the IC50 in series [8] worked out at 0.04 µg/mL (≈ 0.156 µM).
As for `C=C1[C@H](n2ccc(N)nc2=O)O[C@H](CO)[C@H]1O` [2'-deoxy-2'-methylidenecytidine, reference compound], the solubility in saline result in series [1] is given as “not soluble”. Also, in series [9], the solubility entry is on record as “inferior in solubility”.
